According to patent publication US20170114030A1, “COMPOSITION WITH HIGH CONTENT OF CYCLIC DIPEPTIDE” (SUNTORY HOLDINGS LIMITED, priority 2014, published 2017):

Test system: plasma active GLP-1
Assay: In vivo plasma active GLP-1 level-increasing action after oral administration
Design: species or system mice
Conditions: 10 mg/kg orally; for Plasma active GLP-1 level (relative value to control group as 100), Average value: male C57/BL6J mice, blood after 30 minutes, 0.5% CMC-Na group = 100; for Significant difference (p < 0.05) vs control group, plasma active GLP-1 level: mice, 30 minutes, Student's t-test
Method: In the Test Examples below, data were represented as average value±standard error. In Test Examples 1, 2, and 3, a Student's t-test was used for a statistical test, and in other Test Examples, one-way ANOVA was carried out for dispersion analysis followed by a multiple comparison test by using a Dunnet's test. […] All of these analyses were carried out by using an SPSS for Windows release 17.0 (manufactured by SPSS Inc.).
Among the cyclic dipeptides, cyclic dipeptides for which an in vitro GLP-1 secretion-accelerating action was found and highly lipid-soluble cyclic dipeptides were used in the following experiment. Seven-week-old male C57/BL6J mice were purchased from CLEA Japan, Inc. for use, and they were subjected to an experiment after 1 week of a habituation period. Each animal was grown in an animal room with an air conditioning system (temperature: 23.5±1.0° C., humidity: 55±10 RH %, air ventilation: 12 to 15 times/hour, illumination: from 7:00 to 19:00/day).
After the habituation period, the mice were subjected to 5.5 hours of food deprivation and 2 hours of water deprivation. Thereafter, a cyclic dipeptide dissolved or suspended in a 0.5% CMC-Na aqueous solution in 10 mg/kg was orally administered to each mouse forcibly. After 30 minutes, the blood was collected from the abdominal vena cava under anesthesia, and 1 μL of heparin sodium and 1 μL of 10 mM Sitagliptin phosphate were added to each collected blood, which was then subjected to centrifugation at 8000 rpm for 10 minutes to recover the plasma, and the plasma active GLP-1 level was measured by using the ELISA kit. In the analysis, the active GLP-1 level for a group administered with 0.5% CMC-Na aqueous solution was defined as 100, and relative values thereto were used.
In each Table, cyclic dipeptides for which an in vivo plasma active GLP-1 level-increasing action was found and was not found are listed.

Structure (SMILES)	Plasma active GLP-1 level (relative value to control group as 100), Average value (Experiment 4)	Significant difference (p < 0.05) vs control group, plasma active GLP-1 level (Experiment 4)	Plasma active GLP-1 level (relative value to control group as 100), Average value (Experiment 3)	Significant difference (p < 0.05) vs control group, plasma active GLP-1 level (Experiment 3)	other results
O=C1CNC(=O)C(Cc2ccccc2)N1 (centres unmarked) [compound 8]	85	No			
CC(C)C1NC(=O)C(C(C)C)NC1=O (centres unmarked) [compound 11]	100	No			
CCC(C)C1NC(=O)C(C(C)CC)NC1=O (centres unmarked) [compound 14]	105	No			
CC(C)CC1NC(=O)C(CC(C)C)NC1=O (centres unmarked) [compound 15]	95	No			
CC(C)CC1NC(=O)C(Cc2ccccc2)NC1=O (centres unmarked) [compound 16]	105	No			
O=C1NC(Cc2ccccc2)C(=O)NC1Cc1ccccc1 (centres unmarked) [compound 17]			203	Yes	
O=C1NC(Cc2c[nH]c3ccccc23)C(=O)NC1Cc1ccc(O)cc1 (centres unmarked) [compound 22]			203	Yes	
O=C1NC(Cc2ccc(O)cc2)C(=O)NC1CO (centres unmarked) [compound 29]	95	No			
O=C1NC(Cc2ccc(O)cc2)C(=O)N2CCCC12 (centres unmarked) [compound 30]	95	No			
O=C(O)CC1NC(=O)C(Cc2ccccc2)NC1=O (centres unmarked) [compound 33]	90	No			
O=C1NC(Cc2c[nH]cn2)C(=O)NC1Cc1ccccc1 (centres unmarked) [compound 38]			264	Yes	
CC(C)CC1NC(=O)C(Cc2c[nH]c3ccccc23)NC1=O (centres unmarked) [compound 39]			229	Yes	
CC(C)CC1NC(=O)C(C)NC1=O (centres unmarked) [compound 44]			255	Yes	
O=C1NC(Cc2ccc(O)cc2)C(=O)NC1Cc1ccc(O)cc1 (centres unmarked) [compound 49]					Plasma active GLP-1 level (relative value to control group as 100), Average value (Experiment 5): 100; Significant difference (p < 0.05) vs control group, plasma active GLP-1 level (Experiment 5): No
CC(C)C1NC(=O)C(Cc2c[nH]c3ccccc23)NC1=O (centres unmarked) [compound 61]			117	No	
CSCCC1NC(=O)C(CC(C)C)NC1=O (centres unmarked) [compound 72]					Plasma active GLP-1 level (relative value to control group as 100), Average value (Experiment 6): 90; Significant difference (p < 0.05) vs control group, plasma active GLP-1 level (Experiment 6): No
O=C1NC(Cc2c[nH]c3ccccc23)C(=O)NC1Cc1c[nH]c2ccccc12 (centres unmarked) [compound 75]			229	Yes	
CC(O)C1NC(=O)C(Cc2c[nH]c3ccccc23)NC1=O (centres unmarked) [compound 79]					Plasma active GLP-1 level (relative value to control group as 100), Average value (Experiment 6): 100; Significant difference (p < 0.05) vs control group, plasma active GLP-1 level (Experiment 6): No
NC(=O)CCC1NC(=O)C(Cc2c[nH]c3ccccc23)NC1=O (centres unmarked) [compound 82]					Plasma active GLP-1 level (relative value to control group as 100), Average value (Experiment 6): 90; Significant difference (p < 0.05) vs control group, plasma active GLP-1 level (Experiment 6): No
